Entries after “also recorded” stand apart in the source; their conditions may differ. Counter-ions that a name gives are not always drawn.
System: influx of neutrophils to the lung in LPS-challenged rats
Test: Rat LPS neutrophilia model
Assay type: in vivo
Details: LPS aerosol, lavage 4 hours later, in at least one of the range of conditions tested, significance p<0.05
Description: The effect of compounds on the influx of neutrophils to the lung in LPS-challenged rats is evaluated as follows. The test compound is suspended in one of the following solutions: 0.5% tween 80/PBS, 0.5% tween 80/saline, 10% EtOH/saline (with pH adjusted to 2.0, or 8.0 with HCl, or unadjusted), Saline (pH 2.0, 6.5 or 8.0, 0.5% Tragacanth, 1% DMSO/20% Encapsin/Saline, or acidified 5% Tragacanth. The suspension process may be aided by the use of a glass homogenizer. For intratracheal administration, the animals are anesthetized with inhaled isoflurane and placed in a supine position, the trachea is intubated with a steel gavage needle (1.5 inch, 22 gauge, small ball) or a Penn-Century Microsprayer Aerosolizer (model IA-LB) and 200 ul of dosing solution is delivered. The animals are visually monitored during the recovery process, which typically occurs within two minutes.
Rats treated with compound or vehicle (15 min-24 hours pretreatment) are exposed to an LPS aerosol (100 ug/ml) for 15 min. Four hours later the rats are euthanized with pentobarbital (100 mg/kg, i.p.) and the airways are lavaged with 5 washes of 5 ml of phosphate buffered saline. The harvested cells are stained (Diffquick) and counted to determine total and differential cell data. In a typical study, macrophages represent 40-70% of the total cells, and polymorphonuclear cells 30-60% of the total cells. Inhibition of neutrophil levels relative to no compound controls is calculated based on the differential counts.
The assay has varying conditions, such as concentration, pretreat time, form of the compound (crystalline, amorphous, salts, micronised), and a wet or dry application of the compound.
The data is obtained as % inhibition using a particular concentration and pretreat time.

| Structure (SMILES) | inhibition of neutrophilia |
| --- | --- |
| Cc1ccc(C(=O)NC(C)C)cc1-c1nc(N2CCC(N3CCCC3)CC2)nc2c1CNC(=O)N2c1c(F)cccc1F [Example 60, 3-{8-(2,6-difluorophenyl)-7-oxo-2-[4-(1-pyrrolidinyl)-1-piperidinyl]-5,6,7,8-tetrahydropyrimido[4,5-d]pyrimidin-4-yl}-4-methyl-N-(1-methylethyl)benzamide] | statistically nonsignificant inhibition of neutrophilia; also recorded: inactive |
| Cc1ccc(C(=O)NC(C)C)cc1-c1nc(N2CCCN(C)CC2)nc2c1CNC(=O)N2c1c(F)cccc1F [Example 179, 3-[8-(2,6-difluorophenyl)-2-(4-methylhexahydro-1H-1,4-diazepin-1-yl)-7-oxo-5,6,7,8-tetrahydropyrimido[4,5-d]pyrimidin-4-yl]-4-methyl-N-(1-methylethyl)benzamide trifluoroacetate] | statistically nonsignificant inhibition of neutrophilia |
| CSc1ccc(NC(=O)c2ccc(C)c(-c3nc(NCCN(C)C)nc4c3CNC(=O)N4c3c(F)cccc3F)c2)cc1 [Example 127, 3-(8-(2,6-difluorophenyl)-2-{[2-(dimethylamino)ethyl]amino}-7-oxo-5,6,7,8-tetrahydropyrimido[4,5-d]pyrimidin-4-yl)-4-methyl-N-[4-(methylthio)-phenyl]benzamide] | statistically significant inhibition of neutrophilia |
| Cc1ccc(C(=O)NC(C)C)cc1-c1nc(N2CCC(N3CCC(C)CC3)CC2)nc2c1CNC(=O)N2c1c(F)cccc1F [Example 70, 3-[8-(2,6-difluorophenyl)-2-(4-methyl-1,4′-bipiperidin-1′-yl)-7-oxo-5,6,7,8-tetrahydropyrimido[4,5-d]pyrimidin-4-yl]-4-methyl-N-(1-methylethyl)benzamide] | statistically significant inhibition of neutrophilia |
| Cc1ccc(C(=O)Nc2ccc(F)cc2)cc1-c1nc(NC2CCN(C)CC2)nc2c1CNC(=O)N2c1c(F)cccc1F [Example 39, 3-{8-(2,6-difluorophenyl)-2-[(1-methyl-4-piperidinyl)amino]-7-oxo-5,6,7,8-tetrahydropyrimido[4,5-d]pyrimidin-4-yl}-N-(4-fluorophenyl)-4-methylbenzamide] | statistically nonsignificant inhibition of neutrophilia |
| Cc1ccc(C(=O)Nc2ccc(F)c(F)c2)cc1-c1nc(NCCN(C)C)nc2c1CNC(=O)N2c1c(F)cccc1F [Example 138, N-(3,4-difluorophenyl)-3-(8-(2,6-difluorophenyl)-2-{[2-(dimethylamino)-ethyl]amino}-7-oxo-5,6,7,8-tetrahydropyrimido[4,5-d]pyrimidin-4-yl)-4-methylbenzamide] | statistically significant inhibition of neutrophilia |
| CCCNC(=O)c1ccc(C)c(-c2nc(N(C)CCCN(C)C)nc3c2CNC(=O)N3c2c(F)cccc2F)c1 [Example 53, 3-{8-(2,6-difluorophenyl)-2-[[3-(dimethylamino)propyl](methyl)amino]-7-oxo-5,6,7,8-tetrahydropyrimido[4,5-d]pyrimidin-4-yl}-4-methyl-N-propylbenzamide] | statistically nonsignificant inhibition of neutrophilia |
| CCN(CC)CCCNc1nc(-c2cc(C(=O)Nc3nccs3)ccc2C)c2c(n1)N(c1c(F)cccc1F)C(=O)NC2 [Example 120, 3-[2-{[3-(diethylamino)propyl]amino}-8-(2,6-difluorophenyl)-7-oxo-5,6,7,8-tetrahydropyrimido[4,5-d]pyrimidin-4-yl]-4-methyl-N-1,3-thiazol-2-ylbenzamide] | statistically significant inhibition of neutrophilia |
| COc1ccc(NC(=O)c2ccc(C)c(-c3nc(NCCN(C)C)nc4c3CNC(=O)N4c3c(F)cccc3F)c2)cn1 [Example 140, 3-(8-(2,6-difluorophenyl)-2-{[2-(dimethylamino)ethyl]amino}-7-oxo-5,6,7,8-tetrahydropyrimido[4,5-d]pyrimidin-4-yl)-4-methyl-N-[6-(methyloxy)-3-pyridinyl]benzamide] | statistically significant inhibition of neutrophilia |
| CN(C)CCNc1nc(-c2cccc(C(=O)Nc3ccc(F)cc3)c2)c2c(n1)N(c1c(F)cccc1F)C(=O)NC2 [Example 93] | statistically nonsignificant inhibition of neutrophilia |
| CN(C)CCNc1nc(-c2cccc(C(=O)Nc3ccccc3)c2)c2c(n1)N(c1c(F)cccc1F)C(=O)NC2 [Example 91] | statistically significant inhibition of neutrophilia |
| Cc1ccc(C(=O)NC(C)C)cc1-c1nc(NC2CCN(Cc3ccccc3)CC2)nc2c1CNC(=O)N2c1c(F)cccc1F [Example 200, 3-(8-(2,6-difluorophenyl)-7-oxo-2-{[1-(phenylmethyl)-4-piperidinyl]amino}-5,6,718-tetrahydropyrimido[4,5-d]pyrimidin-4-yl)-4-methyl-N-(1-methylethyl)benzamide] | statistically significant inhibition of neutrophilia |
| Cc1ccc(C(=O)Nc2nccs2)cc1-c1nc(NC[C@H](C)O)nc2c1CNC(=O)N2c1c(F)cccc1F [Example 134, 3-(8-(2,6-difluorophenyl)-2-{[(2S)-2-hydroxypropyl]amino}-7-oxo-5,6,7,8-tetrahydropyrimido[4,5-d]pyrimidin-4-yl)-4-methyl-N-1,3-thiazol-2-ylbenzamide] | statistically nonsignificant inhibition of neutrophilia |
| CCN(CC)CCCNc1nc(-c2cc(C(=O)Nc3ccc(F)cc3)ccc2C)c2c(n1)N(c1c(F)cccc1F)C(=O)NC2 [Example 43, 3-[2-{[3-(diethylamino)propyl]amino}-8-(2,6-difluorophenyl)-7-oxo-5,6,7,8-tetrahydropyrimido[4,5-d]pyrimidin-4-yl]-N-(4-fluorophenyl)-4-methylbenzamide] | inactive |
| Cc1ccc(C(=O)NC(C)C)cc1-c1nc(NCCN(C)C)nc2c1CNC(=O)N2c1c(F)cccc1F [Example 37, 3-(8-(2,6-difluorophenyl)-2-{[2-(dimethylamino)ethyl]amino}-7-oxo-5,6,7,8-tetrahydropyrimido[4,5-d]pyrimidin-4-yl)-4-methyl-N-(1-methylethyl)benzamide] | statistically nonsignificant inhibition of neutrophilia |
| Cc1ccc(C(=O)Nc2ccc(F)cc2)cc1-c1nc(N(C)CCCN(C)C)nc2c1CNC(=O)N2c1c(F)cccc1F [Example 9] | statistically nonsignificant inhibition of neutrophilia |
| Cc1ccc(C(=O)NC(C)C)cc1-c1nc(NCCCN(C)C)nc2c1CNC(=O)N2c1c(F)cccc1F [Example 40, 3-(8-(2,6-difluorophenyl)-2-{[3-(dimethylamino)propyl]amino}-7-oxo-5,6,7,8-tetrahydropyrimido[4,5-d]pyrimidin-4-yl)-4-methyl-N-(1-methylethyl)benzamide] | statistically significant inhibition of neutrophilia |
| Cc1c(F)cc(C(=O)Nc2ccccc2)cc1-c1nc(NCCN(C)C)nc2c1CNC(=O)N2c1c(F)cccc1F [Example 112, 3-(8-(2,6-difluorophenyl)-2-{[2-(dimethylamino)ethyl]amino}-7-oxo-5,6,7,8-tetrahydropyrimido[4,5-d]pyrimidin-4-yl)-5-fluoro-4-methyl-N-phenylbenzamide] | statistically significant inhibition of neutrophilia |
| Cc1ccc(C(=O)Nc2nccs2)cc1-c1nc(NCCCN(C)C)nc2c1CNC(=O)N2c1c(F)cccc1F [Example 119, 3-(8-(2,6-difluorophenyl)-2-{[3-(dimethylamino)propyl]amino}-7-oxo-5,6,7,8-tetrahydropyrimido[4,5-d]pyrimidin-4-yl)-4-methyl-N-1,3-thiazol-2-ylbenzamide] | statistically significant inhibition of neutrophilia |
| Cc1ccc(C(=O)NC(C)C)cc1-c1nc(N(C)CCN(C)C)nc2c1CNC(=O)N2c1c(F)cccc1F [Example 36, 3-{8-(2,6-difluorophenyl)-2-[[2-(dimethylamino)ethyl](methyl)amino]-7-oxo-5,6,7,8-tetrahydropyrimido[4,5-d]pyrimidin-4-yl}-4-methyl-N-(1-methylethyl)benzamide] | statistically significant inhibition of neutrophilia |
| Cc1ccc(C(=O)Nc2ccc(F)cc2)cc1-c1nc(NCCCN(C)C)nc2c1CNC(=O)N2c1c(F)cccc1F [Example 42, 3-(8-(2,6-difluorophenyl)-2-{[3-(dimethylamino)propyl]amino}-7-oxo-5,6,7,8-tetrahydropyrimido[4,5-d]pyrimidin-4-yl)-N-(4-fluorophenyl)-4-methylbenzamide] | statistically significant inhibition of neutrophilia |
| Cc1ccc(C(=O)Nc2nccs2)cc1-c1nc(N(C)CCCN(C)C)nc2c1CNC(=O)N2c1c(F)cccc1F [Example 124, 3-{8-(2,6-difluorophenyl)-2-[[3-(dimethylamino)propyl](methyl)amino]-7-oxo-5,6,7,8-tetrahydropyrimido[4,5-d]pyrimidin-4-yl}-4-methyl-N-1,3-thiazol-2-ylbenzamide] | statistically nonsignificant inhibition of neutrophilia |
